What was measured:
Type I IL-1R [1] = biological target: T1, Type I IL-1R (Homo sapiens, UniProt P14778); conditions: cells that express the Type I IL-1R; cited from earlier work
T1 sequence (P14778 18-569): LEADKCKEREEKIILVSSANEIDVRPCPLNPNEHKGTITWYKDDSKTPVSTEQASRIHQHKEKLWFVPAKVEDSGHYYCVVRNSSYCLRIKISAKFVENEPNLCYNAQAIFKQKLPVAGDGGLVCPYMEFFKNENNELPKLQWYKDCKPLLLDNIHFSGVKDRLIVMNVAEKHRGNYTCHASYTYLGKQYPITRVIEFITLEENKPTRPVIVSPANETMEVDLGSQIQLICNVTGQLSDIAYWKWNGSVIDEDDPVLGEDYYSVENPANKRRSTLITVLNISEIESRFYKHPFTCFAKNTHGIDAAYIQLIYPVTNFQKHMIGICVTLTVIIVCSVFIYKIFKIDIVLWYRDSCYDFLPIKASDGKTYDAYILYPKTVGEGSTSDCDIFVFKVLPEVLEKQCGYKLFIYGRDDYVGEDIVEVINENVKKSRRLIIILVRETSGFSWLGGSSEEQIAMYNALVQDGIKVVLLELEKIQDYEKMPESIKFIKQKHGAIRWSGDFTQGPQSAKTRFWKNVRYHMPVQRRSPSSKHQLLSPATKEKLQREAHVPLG

[2] = tested on: adjuvant-induced arthritis; conditions: p.o. at 30 and 60 mg/kg/day; cited from earlier work
paw inflammation = conditions: dose of 50 mg/kg; cited from earlier work
PKC = conditions: read-out: IC50 PKC inhibitory activity; cited from earlier work
[3] = tested on: prostaglandin E2 production in synovial cultures; assay: PGE2 formation in cultured human synovial fibroblasts during overnight IL-1 priming; type: cell-based; conditions: Fibroblast, co-incubation with IL-1 (10 U/ml), 16 hr, mean±SEM
Experimental: (§1) 1. Cell Culture. […] Experiments were performed on cells from passages 3–8. […] The growth medium was replaced twice weekly.
2. Experimental Treatments.
3. Measurement of Prostaglandin E2. […] Samples were stored at −80° until processing.
1. Data analysis. Immunoassays were routinely performed in duplicate aliquots from each culture. Experimental determinations were performed on duplicate or triplicate cultures. Each experiment was repeated in at least two cell lines. Nonlinear regression curve fitting and statistical analyses were performed using Graph-PAD Prism software (San Diego, Calif.).
The actions of ketoprofen, a cyclooxygenase inhibitor, to attenuate PGE2 formation were determined by co-incubation with IL-1 during prolonged exposure (16 hr); and by brief pre-incubation prior to a subsequent GPCR agonist challenge interval, as shown in FIG. 8.

experimental OA = conditions: sustained systemic delivery; cited from earlier work
[4] = in vivo, cited from earlier work
NFκB activation = conditions: IL-1-stimulated RSF; cited from earlier work
[5] = tested on: IL-8 production by synoviocyte cultures; assay: IL-8 production by synoviocyte cultures in response to IL-1; type: cell-based, human
Experimental: as §1
The kinetics of induction of interleukin-6 in response to stimulation with IL-1 are described. Synoviocyte cultures were exposed to the indicated treatments with IL-1 plus either histamine to activate signaling through inositol trisphosphate (InsP3)/protein kinase C pathway or isproterenol to activate increases in intracellular cAMP. Production of PGE2, IL-6, and IL-8 were measured in the culture supernatants following 1, 2, 4, 6, and 24 hr treatments. In this experiment, each treatment interval was performed in a separate culture. […] IL-1 also produced a significant elevation of IL-8 (2000 pg/ml), which was first measurable at 6 hr of treatment.
The effect of ketoprofen on the induction of cytokine production by IL-1 and GPCR agonists was examined. The protocol also tested the effects of IL-1 concentration dependence on the IL-6 steady state induction. Synoviocyte cultures were exposed to indicated concentrations of IL-1 and GPCR agonists. Culture supernatants were collected and replaced with fresh media aliquots containing the same agonist additions at 8-hr intervals. PGE2, IL-6, and IL-8 in the supernatants were assayed as described.

[6] = tested on: IL-6 production by synovial cultures; assay: IL-6 production by synovial cultures stimulated with IL-1 plus GPCR ligands; type: cell-based, human; conditions: 0.75 μM ketoprofen
Experimental: FIG. 9 is a graphical representation of the effect of ketoprofen on IL-6 production by synovial cultures at 16 hours in the presence of the indicated concentrations of IL-1 plus the added G-protein coupled receptor ligands. Cultures were incubated for 16 hours with IL-1 at the indicated concentration (0.3, 1.0 and 3.0 pg/ml) in the absence and presence of 0.75 μM ketoprofen in experimental growth medium with one of the following additional receptor ligands: 1) isoproterenol (ISO) at 1.0 μM to activate the camp pathway, or 2) histamine (HIS) at 100 μM to activate the IP3/calcium pathway. Culture supernatants were collected and replaced with fresh media aliquots containing the same agonist additions at 8 hour intervals. Following treatment, the supernatant medium corresponding to the treatment interval from 8 to 16 hours was collected and analyzed for IL-6.
as §1
4. Measurement of IL-6. Production of the cytokine, IL-6, was also measured in aliquots of supernatant culture media which had been stored frozen at −80° C. IL-6 was measured by sandwich ELISA with alkaline phosphatase detection as described by the manufacturer (Pharmingen) and quantitated using standard curves prepared with the respective pure recombinant human cytokines. […]

BMP-4 receptors = conditions: 125I-BMP-4; read-out: apparent dissociation constant; cited from earlier work
[7] = tested on: rheumatoid synovial fibroblasts (RSF); conditions: concentrations of 10–150 μM; IL-1 or IL-8 stimulated; cited from earlier work
[8] = tested on: prostaglandin E2 production in synovial cultures; conditions: histamine 100 μM or bradykinin 1 μM; overnight IL-1 (10 U/ml) priming
Experimental: Cell Culture. Synovial tissue was obtained from osteoarthritis patients undergoing joint replacement surgery through the Clinical Research Center, MacNeal Hospital, and transported to the laboratory in Dulbecco's Modified Eagle's Medium (DMEM) containing penicillin (100 units/ml), streptomycin (100 μg/ml), and fungizone (0.25 μg/ml). The synovium was dissected and minced with scissors, and plated as explants in culture medium composed of DMEM containing L-glutamine (2 mM), heat inactivated fetal bovine serum (10% v/v), plus antibiotics. Cultures were housed at 37° C. in a humidified atmosphere of 5% CO2. Adherent synovial cells grew out of the explants within 2–3 weeks, and were passaged by trypsinization. Seed cultures were fed twice weekly and were passaged at confluency. Experiments were performed on cells from passages 3–8. Experimental cultures were plated into 35 mm dishes at a density of 7.5×10^3 cells/cm^2 in 2 ml culture medium. […]
Measurement of Prostaglandin E2. […] Aliquots of culture supernatant were analyzed by competitive binding radioimmunoassay as specified by the manufacturer (Sigma Chemical Co.), using an antibody with equivalent reactivity toward prostaglandins E2 and E1. For quantitation, a standard curve was prepared with each assay using fixed concentrations of [^3H]prostaglandin E2, and increasing concentrations of authentic competing prostaglandin E2.

Type I IL-1R [9] = biological target: T1, Type I IL-1R; conditions: in vitro efficacy; cited from earlier work

IL-1Ra: naturally occurring secreted, soluble ligand that binds to IL-1 receptors; 22 kD protein
molar excess required to inhibit IL-1 biological responses (Type I IL-1R [1]): 10–100 fold

C[S+]([O-])c1ccc(-c2nc(-c3ccc(F)cc3)c(-c3ccncc3)[nH]2)cc1 (stereo not shown) [SB203580, 4-(4-fluorophenyl)-2-(4-methylsulfinylphenyl)-5-(4-pyridyl)imidazole]
antiarthritic activity [2]: Antiarthritic activity | effect on paw inflammation (paw inflammation): significant inhibition of paw inflammation

Cn1c2ccccc2c2c3c(c4c5ccccc5n(CCC#N)c4c21)CNC3=O [G-6203]
IC50 (PKC): 2000 to 10000 nM

O=C(c1ccccc1)c1ccc2n1CCC2C(=O)O (stereo not shown) [ketorolac]
IC50 [3]: 2.2 ± 0.4 nM

CC(=N)NCCCC[C@H](N)C(=O)O [L-NIL]
effect on progression of experimental OA (experimental OA): reduces the progression of experimental OA

Ac-FEWTPGWYQJY-NH2 [AF11567]
plasma half-life [4]: 2.3 to 2.6 h

CCc1cccc2c3c([nH]c12)C(CC)(CC(=O)O)OCC3 (stereo not shown) [etodolac]
IC50 [3]: 15.2 ± 4.6 nM

O=C1CCNC(=O)c2[nH]ccc21 [aldisine]
activity on PGE2 production (NFκB activation): inactive

CC(C(=O)O)c1cccc(C(=O)c2ccccc2)c1 (stereo not shown) [ketoprofen]
IC50 [3]: 4.5 ± 0.8 nM | effect on IL-8 production in response to IL-1 [5]: reduces | effect on IL-6 production in histamine or isoproterenol/IL-1 co-stimulated samples ([6]; histamine 100 μM or isoproterenol 1.0 μM plus IL-1): inhibited | inhibition at 0.75 µM ([6]; Homo sapiens, 1.0 pg/ml IL-1, 16 hr, read-out: inhibition of IL-1-elicited IL-6 production): ≤ 50%

BMP-4: bone morphogenetic protein, member of the TGF-β superfamily
Kd (BMP-4 receptors): 0.11 nM

CC(C)C[C@H](NP(=O)(O)O[C@@H]1O[C@@H](C)[C@H](O)[C@@H](O)[C@H]1O)C(=O)N[C@@H](Cc1c[nH]c2ccccc12)C(=O)O [phosphoramidon]
effect on penetration of cartilage by RSF cells [7]: substantially inhibited

calphostin C
IC50 (PKC): 50000 nM

NCCc1c[nH]cn1 [histamine]
fold increase in PGE2 production compared to IL-1 primed cells receiving no GPCR agonist [8]: 5–10 fold

c1cnc2c(c1)ccc1cccnc12 [1,10-o-phenanthroline]
effect on penetration of cartilage by RSF cells [7]: substantially inhibited

Ac-FEWTPGWYQJYALPL-NH2 [AF12198]
metabolism ([4]; iv): rapid metabolism | IC50 (Type I IL-1R [9]): 0.5 to 2 nM

CN(C)C[C@H]1CCn2c(c(C3=C(c4cn(C)c5ccccc45)C(=O)NC3=O)c3ccccc32)C1 [RO 32-0432]
activity on PGE2 production (NFκB activation): inactive

COc1ccc2c(c1)c(CC(=O)O)c(C)n2C(=O)c1ccc(Cl)cc1 [indomethacin]
IC50 [3]: 3.2 ± 1.5 nM

Reference: patent publication US7067144B2, “Compositions and methods for systemic inhibition of cartilage degradation” (Omeros Corporation, priority 1998, dated 2006)
